From patent US10294243B2, “Bicyclic compounds as pesticides” (BAYER CROPSCIENCE AKTIENGESELLSCHAFT, priority 2014, dated 2019)
Read-outs that look alike come from different tables or passages of the source.

How the values were obtained:
[1] = log P by HPLC on reversed-phase C18 columns (OECD Guideline 117); method [a] acidic pH 2.7, method [b] neutral pH 7.8; type: physicochemical; conditions: for chromatographic logP: reversed-phase C18 HPLC column
Myzus persicae = Myzus persicae - spray test (Chinese cabbage leaf discs); type: in vivo; conditions: after 6 days; for pest or weed control at 500 g/ha: Myzus persicae, foliar, 144 h, read-out: efficacy (aphids killed)
Protocol: Myzus persicae—Spray Test
Solvent: 78 parts by weight of acetone • • 1.5 parts by weight of dimethylformamide
Emulsifier: alkylaryl polyglycol ether
To produce further test concentrations, the preparation is diluted with emulsifier-containing water.
After 6 days, the efficacy in % is determined 100% means that all the aphids have been killed; 0% means that none of the aphids have been killed.

[2] = HPLC reversed-phase C18, method [a] acidic pH 2.7, read-out: logP[a]
[3] = HPLC reversed-phase C18, method [b] neutral pH 7.8, read-out: logP[b]
[4] = HPLC reversed-phase C18, method [b] neutral pH 7.8
[5] = HPLC reversed-phase C18, method [a] acidic pH 2.7

Compound	chromatographic logP [1, 2]	chromatographic logP [1, 3]	pest or weed control at 500 g/ha (Myzus persicae; application rate 500 g/ha) [%]	logP[b] [1, 4]	efficacy (aphids killed) (Myzus persicae; application rate 500 g/ha) [%]	logP[a] [1, 5]	efficacy (aphids killed) (Myzus persicae; application rate 100 g/ha) [%]
CC(C)n1cnc2nc(-c3cccnc3)sc2c1=O [Compound 1, 6-Isopropyl-2-(pyridin-3-yl)[1,3]thiazolo[4,5-d]pyrimidin-7(6H)-one]	1.35	1.43	100	–	–	–	–
O=c1c2sc(-c3cccnc3)nc2ncn1C1CC1 [Compound 2]	–	–	–	1.05	100	–	–
CC(C)Cn1cnc2nc(-c3cccnc3)sc2c1=O [Compound 3, 6-Isobutyl-2-(pyridin-3-yl)[1,3]thiazolo[4,5-d]pyrimidin-7(6H)-one]	1.7	–	100	–	–	–	–
O=c1c2sc(-c3cccnc3)nc2ncn1CC(F)F [Compound 4]	–	–	–	–	100	1.19	–
O=c1c2sc(-c3cccnc3)nc2ncn1CC(F)(F)F [Compound 5, 2-(Pyridin-3-yl)-6-(2,2,2-trifluoroethyl)[1,3]thiazolo[4,5-d]pyrimidin-7(6H)-one]	1.54	–	100	–	–	–	–
O=c1c2sc(-c3cccnc3)nc2ncn1CC(F)(F)C(F)F [Compound 6]	–	–	–	–	90	1.57	–
CN(C)C(=O)Cn1cnc2nc(-c3cccnc3)sc2c1=O [Compound 7]	–	–	–	–	100	0.65	–
Cc1cccc(-n2cnc3nc(-c4cccnc4)sc3c2=O)c1 [Compound 8]	–	–	–	1.94	90	1.94	–
O=c1c2sc(-c3cccnc3)nc2ncn1-c1cccc(C(F)(F)F)c1 [Compound 9]	–	–	–	2.23	100	2.26	–
COc1ccc(-n2cnc3nc(-c4cccnc4)sc3c2=O)cc1 [Compound 12]	–	–	–	1.76	90	1.73	–
CSc1cccc(-n2cnc3nc(-c4cccnc4)sc3c2=O)c1 [Compound 13]	–	–	–	2.08	90	2.09	–
C[S+]([O-])c1cccc(-n2cnc3nc(-c4cccnc4)sc3c2=O)c1 (stereo not shown) [Compound 14]	–	–	–	1.09	90	1.04	–
CSc1cc(-n2cnc3nc(-c4cccnc4)sc3c2=O)ccc1C [Compound 15]	–	–	–	2.35	100	2.42	–
Cc1ccc(-n2cnc3nc(-c4cccnc4)sc3c2=O)cc1[S+](C)[O-] (stereo not shown) [Compound 16]	–	–	–	1.26	90	1.25	–
O=c1c2sc(-c3cccnc3)nc2ncn1-c1ccc(F)c(SC(F)(F)F)c1 [Compound 17]	–	–	–	2.66	90	2.70	–
O=c1c2sc(-c3cccnc3)nc2ncn1-c1ccc(F)c([S+]([O-])C(F)(F)F)c1 (stereo not shown) [Compound 18]	–	–	–	1.95	90	2.01	–
CCSc1cccc(-n2cnc3nc(-c4cccnc4)sc3c2=O)c1 [Compound 19]	–	–	–	2.43	–	2.39	90
CC[S+]([O-])c1cccc(-n2cnc3nc(-c4cccnc4)sc3c2=O)c1 (stereo not shown) [Compound 20]	–	–	–	1.26	100	1.24	–
Cc1cc(F)c(-n2cnc3nc(-c4cccnc4)sc3c2=O)cc1SCC(F)(F)F [Compound 21, 6-{2-Fluoro-4-methyl-5-[(2,2,2-trifluoroethyl)sulphanyl]phenyl}-2-(pyridin-3-yl)[1,3]thiazolo[4,5-d]pyrimidin-7(6H)-one]	2.95	2.91	90	–	–	–	–
Cc1cc(F)c(-n2cnc3nc(-c4cccnc4)sc3c2=O)cc1[S+]([O-])CC(F)(F)F (stereo not shown) [Compound 22, 6-{2-Fluoro-4-methyl-5-[(2,2,2-trifluoroethyl)sulphinyl]phenyl}-2-(pyridin-3-yl)[1,3]thiazolo[4,5-d]pyrimidin-7(6H)-one]	2.01	1.98	90	–	–	–	–
Cc1cc(F)c(-n2cnc3nc(-c4ccc[n+]([O-])c4)sc3c2=O)cc1[S+]([O-])CC(F)(F)F (stereo not shown) [Compound 23, 6-{2-Fluoro-4-methyl-5-[(2,2,2-trifluoroethyl)sulphinyl]phenyl}-2-(1-oxidopyridin-3-yl)[1,3]thiazolo[4,5-d]pyrimidin-7(6H)-one]	1.49	1.45	100	–	–	–	–
CC(C)Sc1cccc(-n2cnc3nc(-c4cccnc4)sc3c2=O)c1 [Compound 24]	–	–	–	2.70	90	2.76	–
CC(C)[S+]([O-])c1cccc(-n2cnc3nc(-c4cccnc4)sc3c2=O)c1 (stereo not shown) [Compound 25]	–	–	–	1.43	90	1.39	–

Compound	chromatographic logP [1, 2]	chromatographic logP [1, 3]	pest or weed control at 500 g/ha (Myzus persicae; application rate 500 g/ha) [%]	logP[b] [1, 4]	efficacy (aphids killed) (Myzus persicae; application rate 500 g/ha) [%]	logP[a] [1, 5]	efficacy (aphids killed) (Myzus persicae; application rate 100 g/ha) [%]
CC(C)CSc1cccc(-n2cnc3nc(-c4cccnc4)sc3c2=O)c1 [Compound 26]	–	–	–	3.08	90	3.18	–
CC(C)C[S+]([O-])c1cccc(-n2cnc3nc(-c4cccnc4)sc3c2=O)c1 (stereo not shown) [Compound 27]	–	–	–	1.68	90	1.73	–
O=c1c2sc(-c3cccnc3)nc2ncn1Cc1cccc(C(F)(F)F)c1 [Compound 28, 2-(Pyridin-3-yl)-6-[3-(trifluoromethyl)benzyl][1,3]thiazolo[4,5-d]pyrimidin-7(6H)-one]	2.47	2.43	–	–	–	–	–
COc1cccc(Cn2cnc3nc(-c4cccnc4)sc3c2=O)c1 [Compound 32]	–	–	–	1.92	–	1.91	–
O=c1c2sc(-c3cccnc3)nc2ncn1Cc1ccccn1 [Compound 34, 2-(Pyridin-3-yl)-6-(pyridin-2-ylmethyl)[1,3]thiazolo[4,5-d]pyrimidin-7(6H)-one]	1.09	–	100	–	–	–	–
O=c1c2sc(-c3cccnc3)nc2ncn1Cc1cccnc1 [Compound 35]	–	–	–	0.72	100	–	–
O=c1c2sc(-c3cccnc3)nc2ncn1Cc1ccncc1 [Compound 36]	–	–	–	–	90	0.55	–
Cc1nc(Cn2cnc3nc(-c4cccnc4)sc3c2=O)cs1 [Compound 38, 6-[(2-Methyl-1,3-thiazol-4-yl)methyl]-2-(pyridin-3-yl)[1,3]thiazolo[4,5-d]pyrimidin-7(6H)-one]	1.36	1.42	–	–	–	–	–
O=c1c2sc(-c3cccnc3)nc2ncn1CC1CC1 [Compound 39, 6-(Cyclopropylmethyl)-2-(pyridin-3-yl)[1,3]thiazolo[4,5-d]pyrimidin-7(6H)-one]	1.53	1.52	100	–	–	–	–
O=c1c2sc(-c3cccnc3)nc2ncn1-c1ccccc1F [Compound 40]	–	–	–	1.69	100	1.70	–
O=c1c2sc(-c3cccnc3)nc2ncn1-c1cccc(OCC(F)(F)F)c1 [Compound 41]	–	–	–	2.34	90	2.33	–
CN(C)S(=O)(=O)c1cccc(-n2cnc3nc(-c4cccnc4)sc3c2=O)c1 [Compound 42, N,N-Dimethyl-3-[7-oxo-2-(pyridin-3-yl)[1,3]thiazolo[4,5-d]pyrimidin-6(7H)-yl]benzenesulphonamide]	1.63	1.72	–	–	–	–	–
O=c1c2sc(-c3cccnc3)nc2ncn1-c1ccc(Cl)cc1 [Compound 43]	–	–	–	2.06	100	2.05	–
O=c1c2sc(-c3cccnc3)nc2ncn1-c1cc([S+]([O-])CC2CC2)ccc1F (stereo not shown) [Compound 45]	–	–	–	1.66	100	1.63	–
O=c1c2sc(-c3cccnc3)nc2ncn1-c1cc(SCC(F)(F)F)ccc1F [Compound 46]	–	–	–	2.56	90	2.60	–
Cc1ccc(-n2cnc3nc(-c4cccnc4)sc3c2=O)cc1SCC(F)(F)F [Compound 47]	–	–	–	2.75	90	2.73	–
Cc1ccc(-n2cnc3nc(-c4cccnc4)sc3c2=O)cc1[S+]([O-])CC(F)(F)F (stereo not shown) [Compound 48]	–	–	–	1.85	100	1.86	–
Cc1cc(C)c(-n2cnc3nc(-c4cccnc4)sc3c2=O)cc1SCC(F)(F)F [Compound 49, 6-{2,4-Dimethyl-5-[(2,2,2-trifluoroethyl)sulphanyl]phenyl}-2-(pyridin-3-yl)[1,3]thiazolo[4,5-d]pyrimidin-7(6H)-one]	3.04	2.98	100	–	–	–	–
CN(C)C(=O)c1cc2cc(-n3cnc4nc(-c5cccnc5)sc4c3=O)ccc2s1 [Compound 65]	–	–	–	1.70	–	1.70	–
O=c1c2sc(-c3cccnc3)nc2ncn1-c1ccccc1SCC(F)(F)F [Compound 68, 2-(Pyridin-3-yl)-6-{2-[(2,2,2-trifluoroethyl)sulphanyl]phenyl}[1,3]thiazolo[4,5-d]pyrimidin-7(6H)-one]	2.34	2.29	–	–	–	–	–
O=c1c2sc(-c3cccnc3)nc2ncn1-c1ccccc1[S+]([O-])CC(F)(F)F (stereo not shown) [Compound 69, 2-(Pyridin-3-yl)-6-{2-[(2,2,2-trifluoroethyl)sulphinyl]phenyl}[1,3]thiazolo[4,5-d]pyrimidin-7(6H)-one]	1.74	1.75	–	–	–	–	–
Cc1ccc(-n2cnc3nc(-c4cncnc4)sc3c2=O)cc1 [Compound 75]	–	–	–	1.72	–	1.80	–
